Experimental data: patent US20220409595A1, “GLUCOSYLCERAMIDE SYNTHASE INHIBITORS” (GENZYME CORPORATION, priority 2013, published 2022)
Entries after “also recorded” stand apart in the source; their conditions may differ. Like-named read-outs stand apart in the source and are kept apart here.

How the values were obtained:
[1] = test system: Fabry iPSC-derived cardiomyocytes; assay: Immunocytochemistry of GL-3 and Lamp2 in Fabry iPSC-derived cardiomyocytes; assay type: cell-based, human
Experimental: It was next determined whether the compound could reduce levels of accumulated GL-3 when significant GL-3 accumulation is present at the start of treatment (FIG. 4). Twenty eight post-start of differentiation, beating EBs were treated with 1 μM of GCS452 for 15 days. The EBs were dissociated and plated at the end of the treatment, and ICC analysis was performed. […] GL-3 reduction in treated Fabry EBs was confirmed by mass spectrometry. While there was a 13 to 18 fold increase of GL-3 in untreated FD cardiomyocytes compared to WT, GL-3 levels increased by 4.5 to 5.5 fold in treated FD cardiomyocytes after 15 days of treatment with GCS452. This corresponds to a 2.3 to 2.8 fold reduction in accumulated GL-3 as compared to GL-3 levels at the start point (TO) of treatment (FIG. 5B). In parallel, it was investigated whether agalsidase beta could clear accumulated GL-3 in one month old Fabry cardiomyocytes. EBs were treated with 0.3p g/mL of agalsidase beta for 5 days and GL-3 content was analyzed as described for GCS452. GL-3 vacuoles were not detected in treated Fabry cardiomyocytes using ICC (FIG. 5C). […] One month old beating EBs were harvested and dissociated by using the embryoid body dissociation kit (Miltenyi Biotech, Bergisch Gladbach). Dissociated cells were plated on matrigel coated dishes. Five days latter, cells were fixed using 8% de formaldehyde solution (Sigma-Aldrich, St. Louis, Mo.) in DPBS (Gibco, Carlsbad, Calif.) and permeabilized in 0.05% Tween 20 (Sigma Life Science, St. Louis, Mo.) 20 minutes at room temperature. The samples were incubated with the primary antibodies over night at 4° C. Secondary antibodies were applied one hour at room temperature. Primary antibodies used were mouse monoclonal IgG1 directed against—Actinin, at the final dilution 1/1500 (Sigma Life Science, St. Louis, Mo.), rat monoclonal IgM directed against GL-3/CD77, at the final dilution 1/300 (Abcam, Cambridge, US) and mouse monoclonal IgG1 directed against LAMP2, at the final dilution 1/500 (Santa Cruz Biotechnology, Dallas, Tex.). The secondary antibodies were Alexa Fluor 488 goat anti-mouse IgG (Molecular Probes, Carlsbad, Calif.) Alexa Fluor 555 goat anti-mouse IgG (Molecular Probes, Carlsbad, Calif.) and Alexa Fluor 488 goat anti-rat IgG (Molecular Probes, Carlsbad, Calif.). They were used at the final dilution 1/1000.

[2] = test system: Fabry iPSC-derived cardiomyocytes; assay: GL-3 content of Fabry iPSC-derived cardiomyocytes (beating EBs) by mass spectrometry; assay type: cell-based, human
Experimental: GCS452 [(S)-quinuclidin-3-yl (2-(2-(4-fluorophenyl)thiazol-4-yl)propan-2-yl) carbamate], a selective glucosylceramide synthase inhibitor, was tested to evaluate its potential to prevent GL-3 accumulation in Fabry iPSC-derived cardiomyocytes. EBs were treated eighteen days after induction of cardiac differentiation. At this time point, accumulation was low in the FD cardiomyocytes (FIG. 4). The FD and WT cardiomyocytes were treated with 1 μM GCS452 for 15 days.
It was next determined whether the compound could reduce levels of accumulated GL-3 when significant GL-3 accumulation is present at the start of treatment (FIG. 4). […]
In parallel, it was investigated whether agalsidase beta could clear accumulated GL-3 in one month old Fabry cardiomyocytes. EBs were treated with 0.3p g/mL of agalsidase beta for 5 days and GL-3 content was analyzed as described for GCS452. GL-3 vacuoles were not detected in treated Fabry cardiomyocytes using ICC (FIG. 5C). […]
Pellets containing EBs were extracted in a solution of acetonitrile:methanol (1:1). The extracts were directly injected onto a 2.1×100 mm, 1.7 μM BEH Hilic column (Waters), resolved with a Waters Acquity UPLC system, and analyzed for C16, C18, C20, C22, C23, C24, C24:1, C24(OH), and C24:1(OH) GL-3 isoforms and lyso-GL-3 in multiple-reaction monitoring (MRM) and positive-ion mode with an API-4000 mass spectrometer (ABSciex, Framingham, Mass.). […]

[3] = test system: K14 mouse model of type 2 Gaucher disease; conditions: cited from earlier work
[4] = test system: Fabry patients; conditions: cited from earlier work
[5] = 1 μM for 15 days, treatment from day 28
[6] = 3 μg/mL, one month old Fabry iPSC-derived cardiomyocytes, end of treatment
[7] = 0.3p g/mL for 5 days, one month old Fabry cardiomyocytes

In the case of CC(C)(NC(=O)O[C@@H]1CN2CCC1CC2)c1csc(-c2ccc(F)cc2)n1 [GCS452, (S)-quinuclidin-3-yl (2-(2-(4-fluorophenyl)thiazol-4-yl)propan-2-yl) carbamate], the “GL-3 labeling (ICC)” value [1, 5] is reported as “not or was very slightly detectable; also recorded: significant reduction”, the “Lamp2 signal intensity / number of Lamp2 vacuoles (ICC)” value [1, 5] is reported as “reduced; also recorded: concomitant decrease” and the “GL-3 levels / accumulation in treated FD cardiomyocytes (prevention)” value ([2]; 1 μM for 15 days, treatment from day 18 after induction of cardiac differentiation) is reported as “close to the physiological levels of WT untreated cells”.
For CC(C)(NC(=O)OC1CN2CCC1CC2)c1cccc(-c2ccc(F)cc2)c1 (centres unmarked) [Gz161, Quinuclidin-3-yl (2-(4′-fluoro-[1,1′-biphenyl]-3-yl)propan-2-yl)carbamate], the brain neuropathology [3] is listed as “reduced”, the lifespan [3] is listed as “extended” and the “brain GluCer and GluSph” value ([3]; see Examples 122-125 of WO2012/129084) is listed as “reduce”.
In the case of “agalsidase beta: recombinant α-GalA, enzyme replacement therapy approved for the treatment of Fabry disease”, the “GL-3 deposits / accumulation in cardiomyocytes” value ([4]; Fabry patients, cardiac biopsies, after 5 and 12 months of treatment) is given as “not reduced; also recorded: no effect”, the “GL-3 deposits in capillary endothelium / heart microvasculature” value ([4]; Fabry patients) is given as “effectively clears” and the “GL-3 deposits in capillary endothelium / heart microvasculature” value ([4]; Fabry patients, listed as Agalsidase beta) is given as “consistently clear”. The left ventricular mass ([4]; treated Fabry patients) was “Modest reductions”, the “GL-3 content (ICC), FIG. 5C legend” value [1, 6] was “not or was very slightly detectable” and the “number of Lamp2 vacuoles and intensity of the signal (ICC), FIG. 5C legend” value [1, 6] was “reduced”. The “GL-3 vacuoles (ICC)” value [1, 7] was “not detected” and the “GL-3 clearance in Fabry cardiomyocytes” value [2, 7] was “Complete clearance; also recorded: clearance of GL-3”.
